{
  "source": "patent US20090123377A1",
  "about": "“Method for Testing Substances or Mixtures of Substances,Use of Said Method and Corresponding Test Kits” (BASF AKTIENGESELLSCHAFT, priority 2005, published 2009)",
  "key": {"[1]": {"test_system": "liver fatty acid binding protein (L-FABP)", "experiment": "Proteomic analysis (2D gel electrophoresis) of L-FABP expression in liver of exposed rats", "settings": "for L-FABP (PHEN_M_ID=3368, ETHI_F_ID=4302, HEXA_F_ID=4425) spot under the influence of treatment: 2D gel, rat liver, after 10 d (RUN2), PHEN_M male, ETHI_F and HEXA_F female rats; for amount of L-FABP in the liver, early change: after only a few hours of exposure, male animals (phenobarbital), females (alpha-hexachlorocyclohexane); for expression in the liver of L-FABP (ETHI_F_ID 4302) compared with the controls: longer exposure time and higher dosage, dose-dependent, statistical analysis of 2D gels"}, "[2]": {"test_system": "L-FABP", "settings": "rat, in vivo"}, "[3]": {"test_system": "liver fatty acid binding protein (L-FABP)", "settings": "rat, in vivo"}},
  "note": "Where two headings read alike, the source gives them in different places.",
  "data": [
    {"smiles": "Cl[C@H]1[C@H](Cl)[C@H](Cl)[C@@H](Cl)[C@H](Cl)[C@H]1Cl", "note": "[alpha-hexachlorocyclohexane]", "values": [
      {"measurement": "L-FABP (PHEN_M_ID=3368, ETHI_F_ID=4302, HEXA_F_ID=4425) spot under the influence of treatment", "setting": "[1]", "value": "disappears"},
      {"measurement": "amount of L-FABP in the liver, early change", "setting": "[1]", "value": "changed"},
      {"measurement": "expression in the liver of L-FABP (ETHI_F_ID 4302) compared with the controls", "setting": "[1]", "value": "significantly less expression"},
      {"measurement": "L-FABP level by Western blotting", "setting": "[2]", "value": "confirm the results of the proteomic analysis"}
    ]},
    {"smiles": "Cc1c(N)cccc1N", "note": "[2,6-diaminotoluene]", "values": [
      {"measurement": "L-FABP level by Western blotting", "setting": "[2]", "value": "no change in the L-FABP level"}
    ]},
    {"smiles": "C#C[C@]1(O)CC[C@H]2[C@@H]3CCc4cc(O)ccc4[C@H]3CC[C@@]21C", "note": "[ethinylestradiol]", "values": [
      {"measurement": "L-FABP (PHEN_M_ID=3368, ETHI_F_ID=4302, HEXA_F_ID=4425) spot under the influence of treatment", "setting": "[3]", "value": "disappears"},
      {"measurement": "expression in the liver of L-FABP (ETHI_F_ID 4302) compared with the controls", "setting": "[3]", "value": "significantly less expression"}
    ]},
    {"smiles": "c1ccoc1", "note": "[furan]", "values": [
      {"measurement": "L-FABP level by Western blotting", "setting": "[2]", "value": "decrease in L-FABP"}
    ]},
    {"smiles": "Cc1ccc(N)cc1N", "note": "[2,4-diaminotoluene]", "values": [
      {"measurement": "L-FABP level by Western blotting", "setting": "[2]", "value": "no change in the L-FABP level"}
    ]},
    {"smiles": "CCC1(c2ccccc2)C(=O)NC(=O)NC1=O", "note": "[phenobarbital]", "values": [
      {"measurement": "L-FABP (PHEN_M_ID=3368, ETHI_F_ID=4302, HEXA_F_ID=4425) spot under the influence of treatment", "setting": "[1]", "value": "disappears"},
      {"measurement": "amount of L-FABP in the liver, early change", "setting": "[1]", "value": "changed"},
      {"measurement": "expression in the liver of L-FABP (ETHI_F_ID 4302) compared with the controls", "setting": "[1]", "value": "significantly less expression"},
      {"measurement": "L-FABP level by Western blotting", "setting": "[2]", "value": "confirm the results of the proteomic analysis"}
    ]},
    {"smiles": "ClC(Cl)(Cl)Cl", "note": "[tetrachloromethane]", "values": [
      {"measurement": "L-FABP level by Western blotting", "setting": "[2]", "value": "decrease in L-FABP"}
    ]}
  ]
}
